From PubChem BioAssay (NCI) come the findings set out here.

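A five-concentration, 48-hour dose response in 96-well plates underlies each endpoint, interpolated linearly between surrounding concentrations. TGI: concentration producing complete growth inhibition.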

Some test systems named below: OVCAR-3 ovarian; HCC-2998 colon; A549 NSCLC; OVCAR-4 ovarian; HS 578T breast; DU-145 prostate; EKVX NSCLC; HOP-92 NSCLC; KM12 colon; 786-0 renal; M14 melanoma; HCT-15 colon; MDA-MB-435; SK-MEL-2 melanoma; NCI-H23 lung; CCRF-CEM leukemia; SNB-75 CNS; RXF 393 renal; NCI-H522 lung; SF-539 CNS.
Common to all, as to experiment: DTP human tumour cell line panel, 48 h

The TGI is the concentration at which net growth stops. A higher TGI goes with less potent growth arrest. Consider `COc1ccc(-n2cnc3c(NC(C)(C)C(=O)O)ncnc32)cc1`, for which the TGI in the assay on OVCAR-3 ovarian, in the assay with HCC-2998 colon, in the assay with A549 NSCLC, in the assay on OVCAR-4 ovarian, in the assay with HS 578T breast and in the assay on DU-145 prostate was > 100 µM throughout. In addition, the TGI in the assay on EKVX NSCLC, in the assay with HOP-92 NSCLC, in the assay with KM12 colon, in the assay on 786-0 renal, with M14 melanoma and in the assay on HCT-15 colon was > 100 µM each time. In addition, the TGI with MDA-MB-435, in the assay with SK-MEL-2 melanoma, in the assay with NCI-H23 lung, in the assay on CCRF-CEM leukemia and with SNB-75 CNS was > 100 µM in each case.

Take `C/C(=N/NC(=S)N1CCCC1)c1cccc(/C(C)=N\NC(=S)N2CCCC2)n1`: the TGI in the assay with OVCAR-3 ovarian came to 2.63 µM; with HCC-2998 colon, 2.86 µM; in the assay on A549 NSCLC it was 9.01 µM; in the assay on HS 578T breast it was 25.2 µM; in the assay with DU-145 prostate it was 38.5 µM; in the assay with EKVX NSCLC, 3.49 µM. The TGI with RXF 393 renal was determined as 3.18 µM; with KM12 colon, 4.46 µM; in the assay on 786-0 renal, 2.66 µM; with NCI-H522 lung it was 7.77 µM; with SF-539 CNS, 3.72 µM; in the assay on M14 melanoma it was 2.56 µM. Further, the TGI with HCT-15 colon amounted to 4.96 µM; in the assay on MDA-MB-435 it was 3.13 µM; in the assay on SK-MEL-2 melanoma it was 4.21 µM; with NCI-H23 lung it was 6.5 µM; in the assay on CCRF-CEM leukemia it was 3.01 µM.

As to `C=C1CC(COc2ccc3ccc(=O)oc3c2)(c2ccccc2)OC1=O` (stereo not given), the TGI in the assay with OVCAR-3 ovarian was 3.36 µM; with HCC-2998 colon it was 2.48 µM; with A549 NSCLC, 27.8 µM; with OVCAR-4 ovarian it was 3.22 µM; in the assay with HS 578T breast, > 23.7 µM; in the assay on DU-145 prostate, 7.21 µM. Moreover, the TGI in the assay on EKVX NSCLC came out at 22 µM; with HOP-92 NSCLC, 2.15 µM; with KM12 colon, 13.5 µM; with 786-0 renal it was 2.84 µM; in the assay with NCI-H522 lung it was 2.29 µM; with M14 melanoma, 2.4 µM. For the same compound, the TGI worked out at 4.13 µM with HCT-15 colon; 7.82 µM in the assay on MDA-MB-435; 4.18 µM in the assay with SK-MEL-2 melanoma; 3.5 µM in the assay with NCI-H23 lung; 2.7 µM in the assay on CCRF-CEM leukemia; 12.2 µM with SNB-75 CNS.

Regarding `COC(=O)/C=C(\S/C(=C(/c1ccc(OC)cc1)n1cc(C(=O)OC)c(C(=O)OC)n1)c1ccc(OC)cc1)C(=O)OC`, the TGI in the assay with OVCAR-3 ovarian is 13.2 µM; with A549 NSCLC, > 100 µM; in the assay with OVCAR-4 ovarian, 68.3 µM; in the assay on HS 578T breast, > 100 µM; in the assay on DU-145 prostate it was 40.3 µM; in the assay with EKVX NSCLC it was 49.5 µM. For the same compound, the TGI is 29.4 µM with RXF 393 renal; > 100 µM in the assay with KM12 colon; 26.9 µM in the assay on 786-0 renal; > 100 µM in the assay on SF-539 CNS; > 100 µM in the assay on M14 melanoma; 37.9 µM in the assay with HCT-15 colon. Further, the TGI was 34.2 µM with MDA-MB-435; > 100 µM in the assay with SK-MEL-2 melanoma; > 100 µM in the assay with NCI-H23 lung; 15.4 µM with CCRF-CEM leukemia; > 100 µM in the assay with SNB-75 CNS.

For `Cc1ccccc1NC(=O)/C(C#N)=N\Nc1nc[nH]c1C(N)=O`, the TGI in the assay with OVCAR-3 ovarian, with HCC-2998 colon, in the assay with A549 NSCLC, in the assay with OVCAR-4 ovarian, in the assay with HS 578T breast and in the assay on DU-145 prostate was > 100 µM each time. Moreover, the TGI in the assay on EKVX NSCLC, with RXF 393 renal, in the assay on KM12 colon, in the assay with 786-0 renal, with NCI-H522 lung and in the assay on M14 melanoma was > 100 µM throughout. In addition, the TGI in the assay with HCT-15 colon, in the assay with MDA-MB-435, with SK-MEL-2 melanoma, in the assay on NCI-H23 lung, in the assay with CCRF-CEM leukemia and with SNB-75 CNS was > 100 µM in each case.

With `O=C(/C=C/c1cccs1)c1ccc(C(=O)/C=C/c2cccs2)cc1`, the TGI in the assay on OVCAR-3 ovarian, with HCC-2998 colon, in the assay on A549 NSCLC, in the assay with OVCAR-4 ovarian, with HS 578T breast and in the assay on DU-145 prostate was > 100 µM throughout. The TGI with EKVX NSCLC, in the assay on HOP-92 NSCLC, in the assay on KM12 colon, in the assay on 786-0 renal, with NCI-H522 lung and in the assay with SF-539 CNS was > 100 µM each time. The TGI in the assay on M14 melanoma, in the assay on HCT-15 colon, with MDA-MB-435, in the assay with NCI-H23 lung and in the assay with SNB-75 CNS was > 100 µM throughout.

For `COc1ccc(NC(C)=O)cc1N1C(=O)/C(=C\c2cc(OC)c(OC)c(OC)c2)S(=O)(=O)C1c1ccccc1` (stereo not given), the TGI in the assay on OVCAR-3 ovarian, with HCC-2998 colon, in the assay with A549 NSCLC, in the assay on OVCAR-4 ovarian, in the assay with DU-145 prostate and in the assay on EKVX NSCLC was > 100 µM each time. Further, the TGI in the assay with HOP-92 NSCLC, in the assay with RXF 393 renal, in the assay on KM12 colon, in the assay on 786-0 renal, in the assay with NCI-H522 lung and in the assay on SF-539 CNS was > 100 µM each time. Besides, the TGI in the assay with M14 melanoma, in the assay with HCT-15 colon, in the assay with MDA-MB-435, with SK-MEL-2 melanoma, in the assay with NCI-H23 lung and in the assay with CCRF-CEM leukemia was > 100 µM in each case. The TGI in the assay with SNB-75 CNS was > 100 µM.

In the case of `Cc1ccc(S(=O)(=O)n2cnc(CC(NC(=O)C3CCC(=O)N3C(=O)OCc3ccccc3)C(=O)N3CCCC3C(=O)NN)c2)cc1` (stereo not given), the TGI with HCC-2998 colon, in the assay with A549 NSCLC, with HS 578T breast, in the assay on EKVX NSCLC, in the assay on HOP-92 NSCLC and in the assay with KM12 colon was > 100 µM in each case. Moreover, the TGI in the assay on 786-0 renal, in the assay with M14 melanoma, in the assay on HCT-15 colon, in the assay with SK-MEL-2 melanoma, in the assay with NCI-H23 lung and with SNB-75 CNS was > 100 µM each time.
